# Tests used:
# Experiment in all cases: relative viability (nuclei count vs DMSO), 5 days (fraction); higher = more cells survive
# Tipifarnib = compound: Cn1cncc1[C@@](N)(c1ccc(Cl)cc1)c1ccc2c(c1)c(-c1cccc(Cl)c1)cc(=O)n2C [Tipifarnib]
# In short: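 Lung cancer cell lines were seeded into 1536-well plates, kept overnight at 37 °C and pinned with five library-drug doses (not always all listed) spaced by √10. After 5 days, nuclei were Hoechst-stained, imaged at 4× and counted with MetaXpress. Viability is treated-well nuclei over vehicle-well nuclei, taken as a median across plates. Plates needed control CV below 25% and at least one doubling.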
# Tipifarnib + Luminespib = compound: Cn1cncc1[C@@](N)(c1ccc(Cl)cc1)c1ccc2c(c1)c(-c1cccc(Cl)c1)cc(=O)n2C [Tipifarnib] + CCNC(=O)c1noc(-c2cc(C(C)C)c(O)cc2O)c1-c1ccc(CN2CCOCC2)cc1 [Luminespib] (partner 0.01 µM)
# In short: (§1)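 Values are medians from duplicate plates. Each reflects relative viability, defined as the nuclei count of treated wells over that of vehicle wells. Lung cancer cell lines in 1536-well plates were pin-tool dosed one day after seeding with one drug alone or with a fixed anchor-drug dose plus five library-drug doses (not always all listed) in √10 steps, then fixed, stained and imaged at 4× after 5 days.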
# Tipifarnib + Foretinib = compound: Cn1cncc1[C@@](N)(c1ccc(Cl)cc1)c1ccc2c(c1)c(-c1cccc(Cl)c1)cc(=O)n2C [Tipifarnib] + COc1cc2c(Oc3ccc(NC(=O)C4(C(=O)Nc5ccc(F)cc5)CC4)cc3F)ccnc2cc1OCCCN1CCOCC1 [Foretinib] (partner 0.25 µM)
# In short: as §1
# Tipifarnib + OSI-027 = compound: Cn1cncc1[C@@](N)(c1ccc(Cl)cc1)c1ccc2c(c1)c(-c1cccc(Cl)c1)cc(=O)n2C [Tipifarnib] + COc1cccc2cc(-c3nc([C@H]4CC[C@H](C(=O)O)CC4)n4ncnc(N)c34)[nH]c12 [OSI-027] (partner 0.5 µM)
# In short: as §1
# Tipifarnib + Tozasertib = compound: Cn1cncc1[C@@](N)(c1ccc(Cl)cc1)c1ccc2c(c1)c(-c1cccc(Cl)c1)cc(=O)n2C [Tipifarnib] + Cc1cc(Nc2cc(N3CCN(C)CC3)nc(Sc3ccc(NC(=O)C4CC4)cc3)n2)n[nH]1 [Tozasertib] (partner 0.1 µM)
# In short: as §1
# Tipifarnib + Dasatinib = compound: Cn1cncc1[C@@](N)(c1ccc(Cl)cc1)c1ccc2c(c1)c(-c1cccc(Cl)c1)cc(=O)n2C [Tipifarnib] + Cc1nc(Nc2ncc(C(=O)Nc3c(C)cccc3Cl)s2)cc(N2CCN(CCO)CC2)n1 [Dasatinib] (partner 0.075 µM)
# In short: as §1
# Tipifarnib + Phenformin = compound: Cn1cncc1[C@@](N)(c1ccc(Cl)cc1)c1ccc2c(c1)c(-c1cccc(Cl)c1)cc(=O)n2C [Tipifarnib] + N=C(N)NC(=N)NCCc1ccccc1 [Phenformin] (partner 250 µM)
# In short: as §1
# Tipifarnib + Trametinib = compound: Cn1cncc1[C@@](N)(c1ccc(Cl)cc1)c1ccc2c(c1)c(-c1cccc(Cl)c1)cc(=O)n2C [Tipifarnib] + CC(=O)Nc1cccc(-n2c(=O)n(C3CC3)c(=O)c3c(Nc4ccc(I)cc4F)n(C)c(=O)c(C)c32)c1 [Trametinib] (partner 0.02 µM)
# In short: as §1
# Tipifarnib + Palbociclib = compound: Cn1cncc1[C@@](N)(c1ccc(Cl)cc1)c1ccc2c(c1)c(-c1cccc(Cl)c1)cc(=O)n2C [Tipifarnib] + CC(=O)c1c(C)c2cnc(Nc3ccc(N4CCNCC4)cn3)nc2n(C2CCCC2)c1=O [Palbociclib] (partner 0.5 µM)
# In short: as §1
# Tipifarnib + AZD7762 = compound: Cn1cncc1[C@@](N)(c1ccc(Cl)cc1)c1ccc2c(c1)c(-c1cccc(Cl)c1)cc(=O)n2C [Tipifarnib] + NC(=O)Nc1cc(-c2cccc(F)c2)sc1C(=O)N[C@H]1CCCNC1 [AZD7762] (partner 0.2 µM)
# In short: as §1
# Tipifarnib + Pemetrexed = compound: Cn1cncc1[C@@](N)(c1ccc(Cl)cc1)c1ccc2c(c1)c(-c1cccc(Cl)c1)cc(=O)n2C [Tipifarnib] + Nc1nc2[nH]cc(CCc3ccc(C(=O)N[C@@H](CCC(=O)O)C(=O)O)cc3)c2c(=O)[nH]1 [Pemetrexed] (partner 0.2 µM)
# In short: as §1
# Tipifarnib + Decitabine = compound: Cn1cncc1[C@@](N)(c1ccc(Cl)cc1)c1ccc2c(c1)c(-c1cccc(Cl)c1)cc(=O)n2C [Tipifarnib] + Nc1ncn([C@H]2C[C@H](O)[C@@H](CO)O2)c(=O)n1 [Decitabine] (partner 2 µM)
# In short: as §1
# Tipifarnib + Vorinostat = compound: Cn1cncc1[C@@](N)(c1ccc(Cl)cc1)c1ccc2c(c1)c(-c1cccc(Cl)c1)cc(=O)n2C [Tipifarnib] + O=C(CCCCCCC(=O)Nc1ccccc1)NO [Vorinostat] (partner 1 µM)
# In short: as §1
# Tipifarnib + Olaparib = compound: Cn1cncc1[C@@](N)(c1ccc(Cl)cc1)c1ccc2c(c1)c(-c1cccc(Cl)c1)cc(=O)n2C [Tipifarnib] + O=C(c1cc(Cc2n[nH]c(=O)c3ccccc23)ccc1F)N1CCN(C(=O)C2CC2)CC1 [Olaparib] (partner 8 µM)
# In short: as §1
cell line,measurement,setting,value
NCI-H1623,relative viability,Tipifarnib; 0.01 µM,1.07
same,relative viability,Tipifarnib; 0.03162 µM,1.12
same,relative viability,Tipifarnib; 0.1 µM,0.946
same,relative viability,Tipifarnib; 0.3162 µM,0.886
same,relative viability,Tipifarnib; 1 µM,0.818
same,relative viability,Tipifarnib + Luminespib; first compound 0.01 µM,0.647
same,relative viability,Tipifarnib + Luminespib; first compound 0.03162 µM,0.37
same,relative viability,Tipifarnib + Luminespib; first compound 0.1 µM,0.411
same,relative viability,Tipifarnib + Luminespib; first compound 0.3162 µM,0.412
same,relative viability,Tipifarnib + Luminespib; first compound 1 µM,0.325
same,relative viability,Tipifarnib + Foretinib; first compound 0.01 µM,0.904
same,relative viability,Tipifarnib + Foretinib; first compound 0.03162 µM,0.954
same,relative viability,Tipifarnib + Foretinib; first compound 0.1 µM,0.911
same,relative viability,Tipifarnib + Foretinib; first compound 0.3162 µM,0.765
same,relative viability,Tipifarnib + Foretinib; first compound 1 µM,0.587
same,relative viability,Tipifarnib + OSI-027; first compound 0.01 µM,0.4
same,relative viability,Tipifarnib + OSI-027; first compound 0.03162 µM,0.426
same,relative viability,Tipifarnib + OSI-027; first compound 0.1 µM,0.418
same,relative viability,Tipifarnib + OSI-027; first compound 0.3162 µM,0.361
same,relative viability,Tipifarnib + OSI-027; first compound 1 µM,0.319
same,relative viability,Tipifarnib + Tozasertib; first compound 0.01 µM,0.427
same,relative viability,Tipifarnib + Tozasertib; first compound 0.03162 µM,0.39
same,relative viability,Tipifarnib + Tozasertib; first compound 0.1 µM,0.441
same,relative viability,Tipifarnib + Tozasertib; first compound 0.3162 µM,0.413
same,relative viability,Tipifarnib + Tozasertib; first compound 1 µM,0.368
same,relative viability,Tipifarnib + Dasatinib; first compound 0.01 µM,0.547
same,relative viability,Tipifarnib + Dasatinib; first compound 0.03162 µM,0.493
same,relative viability,Tipifarnib + Dasatinib; first compound 0.1 µM,0.551
same,relative viability,Tipifarnib + Dasatinib; first compound 0.3162 µM,0.583
same,relative viability,Tipifarnib + Dasatinib; first compound 1 µM,0.293
same,relative viability,Tipifarnib + Phenformin; first compound 0.01 µM,0.603
same,relative viability,Tipifarnib + Phenformin; first compound 0.03162 µM,0.556
same,relative viability,Tipifarnib + Phenformin; first compound 0.1 µM,0.553
same,relative viability,Tipifarnib + Phenformin; first compound 0.3162 µM,0.565
same,relative viability,Tipifarnib + Phenformin; first compound 1 µM,0.374
SW 900,relative viability,Tipifarnib; 0.01 µM,0.697
same,relative viability,Tipifarnib; 0.03162 µM,0.282
same,relative viability,Tipifarnib; 0.1 µM,0.486
same,relative viability,Tipifarnib; 0.3162 µM,0.338
same,relative viability,Tipifarnib; 1 µM,0.272
same,relative viability,Tipifarnib + Trametinib; first compound 0.01 µM,0.517
same,relative viability,Tipifarnib + Trametinib; first compound 0.03162 µM,0.465
same,relative viability,Tipifarnib + Trametinib; first compound 0.1 µM,0.489
same,relative viability,Tipifarnib + Trametinib; first compound 0.3162 µM,0.478
same,relative viability,Tipifarnib + Trametinib; first compound 1 µM,0.332
same,relative viability,Tipifarnib + Palbociclib; first compound 0.01 µM,0.454
same,relative viability,Tipifarnib + Palbociclib; first compound 0.03162 µM,0.415
same,relative viability,Tipifarnib + Palbociclib; first compound 0.1 µM,0.347
same,relative viability,Tipifarnib + Palbociclib; first compound 0.3162 µM,0.332
same,relative viability,Tipifarnib + Palbociclib; first compound 1 µM,0.354
same,relative viability,Tipifarnib + Luminespib; first compound 0.01 µM,0.188
same,relative viability,Tipifarnib + Luminespib; first compound 0.03162 µM,0.188
same,relative viability,Tipifarnib + Luminespib; first compound 0.1 µM,0.196
same,relative viability,Tipifarnib + Luminespib; first compound 0.3162 µM,0.167
same,relative viability,Tipifarnib + Luminespib; first compound 1 µM,0.185
same,relative viability,Tipifarnib + Foretinib; first compound 0.01 µM,0.716
same,relative viability,Tipifarnib + Foretinib; first compound 0.03162 µM,0.481
same,relative viability,Tipifarnib + Foretinib; first compound 0.1 µM,0.381
same,relative viability,Tipifarnib + Foretinib; first compound 0.3162 µM,0.39
same,relative viability,Tipifarnib + Foretinib; first compound 1 µM,0.412
same,relative viability,Tipifarnib + OSI-027; first compound 0.01 µM,0.309
same,relative viability,Tipifarnib + OSI-027; first compound 0.03162 µM,0.1
same,relative viability,Tipifarnib + OSI-027; first compound 0.1 µM,0.27
same,relative viability,Tipifarnib + OSI-027; first compound 0.3162 µM,0.189
same,relative viability,Tipifarnib + OSI-027; first compound 1 µM,0.18
same,relative viability,Tipifarnib + Tozasertib; first compound 0.01 µM,0.335
same,relative viability,Tipifarnib + Tozasertib; first compound 0.03162 µM,0.261
same,relative viability,Tipifarnib + Tozasertib; first compound 0.1 µM,0.289
same,relative viability,Tipifarnib + Tozasertib; first compound 0.3162 µM,0.31
same,relative viability,Tipifarnib + Tozasertib; first compound 1 µM,0.273
same,relative viability,Tipifarnib + Dasatinib; first compound 0.01 µM,0.476
same,relative viability,Tipifarnib + Dasatinib; first compound 0.03162 µM,0.289
same,relative viability,Tipifarnib + Dasatinib; first compound 0.1 µM,0.269
same,relative viability,Tipifarnib + Dasatinib; first compound 0.3162 µM,0.158
same,relative viability,Tipifarnib + Dasatinib; first compound 1 µM,0.289
same,relative viability,Tipifarnib + Phenformin; first compound 0.01 µM,0.405
same,relative viability,Tipifarnib + Phenformin; first compound 0.03162 µM,0.216
same,relative viability,Tipifarnib + Phenformin; first compound 0.1 µM,0.365
same,relative viability,Tipifarnib + Phenformin; first compound 0.3162 µM,0.244
same,relative viability,Tipifarnib + Phenformin; first compound 1 µM,0.207
same,relative viability,Tipifarnib + AZD7762; first compound 0.01 µM,0.464
same,relative viability,Tipifarnib + AZD7762; first compound 0.03162 µM,0.372
same,relative viability,Tipifarnib + AZD7762; first compound 0.1 µM,0.331
same,relative viability,Tipifarnib + AZD7762; first compound 0.3162 µM,0.292
same,relative viability,Tipifarnib + AZD7762; first compound 1 µM,0.259
same,relative viability,Tipifarnib + Pemetrexed; first compound 0.01 µM,0.397
same,relative viability,Tipifarnib + Pemetrexed; first compound 0.03162 µM,0.272
same,relative viability,Tipifarnib + Pemetrexed; first compound 0.1 µM,0.455
same,relative viability,Tipifarnib + Pemetrexed; first compound 0.3162 µM,0.303
same,relative viability,Tipifarnib + Pemetrexed; first compound 1 µM,0.299
same,relative viability,Tipifarnib + Decitabine; first compound 0.01 µM,0.387
same,relative viability,Tipifarnib + Decitabine; first compound 0.03162 µM,0.39
same,relative viability,Tipifarnib + Decitabine; first compound 0.1 µM,0.294
same,relative viability,Tipifarnib + Decitabine; first compound 0.3162 µM,0.368
same,relative viability,Tipifarnib + Decitabine; first compound 1 µM,0.402
same,relative viability,Tipifarnib + Vorinostat; first compound 0.01 µM,0.435
same,relative viability,Tipifarnib + Vorinostat; first compound 0.03162 µM,0.144
same,relative viability,Tipifarnib + Vorinostat; first compound 0.1 µM,0.278
same,relative viability,Tipifarnib + Vorinostat; first compound 0.3162 µM,0.227
same,relative viability,Tipifarnib + Vorinostat; first compound 1 µM,0.187
same,relative viability,Tipifarnib + Olaparib; first compound 0.01 µM,0.508
same,relative viability,Tipifarnib + Olaparib; first compound 0.03162 µM,0.545
same,relative viability,Tipifarnib + Olaparib; first compound 0.1 µM,0.494
same,relative viability,Tipifarnib + Olaparib; first compound 0.3162 µM,0.406
same,relative viability,Tipifarnib + Olaparib; first compound 1 µM,0.381

# From the supplement of paper PMC10307832
